In brackets after ≈: the same amount, converted by molar mass. Where two headings read alike, the source gives them in different places.
Columns and labels:
[1] = test system: Pseudomona aeruginosa ATCC 27853; test: CIM antibacterial activity screening (broth microdilution); assay type: cell-based; settings: Pseudomonas aeruginosa
Experimental: (§1) These compounds were tested for their in vitro activity (Screening Antibacterial Activity CIM (μg/mL)) and the results are shown in Table II.
(§2) Bacteria used: A panel of prototype strains was used to screen for antibacterial activity in the compounds: • Methicillin-resistant Staphylococcus aureus ATCC© 43300. • Methicillin-sensitive Staphylococcus aureus ATCC© 29213. • Enterococcus faecalis ATCC© 29212. • Escherichia coli ATCC© 25922. • Pseudomonas aeruginosa ATCC© 27853.
(§3) The strains were planted from the ceparium (where they were preserved in 50% v/v glycerol and Brain Heart Infusion culture broth, at −20° C.) in Mueller-Hinton agar (Oxoid, England).
(§4) The concentrations to be tested ranged from 32 to 0.0625 μg/mL. The wells in columns 11 and 12 were used for positive growth control and sterility control respectively.
(§5) Once the plate was prepared, 100 uL of the bacterial suspension to be tested were added, previously adjusted to 0.5 Mc Farland, in each of the wells, excluding the wells in column 12. Finally, the plates were covered and incubated at 36° C. for 18 to 24 hours. Then, the plates were observed using contrast light to determine the concentration at which bacterial growth is inhibited (indicated by the disappearance of turbidity).
(§6) All trials were conducted three times, and results were considered valid if the internal controls of each plate (growth and sterility controls) were adequate. MIC antibiotic control (ciprofloxacin, gentamicin and vancomycin) was assessed and contrasted with the permitted quality control ranges given by CLSI. If the MIC detected in the trial was within the permitted ranges, the trial was accepted as valid.

[2] = test system: Enterococcus faecalis ATCC 29212; test: as above; assay type: cell-based
Experimental: as §1, §2, §3, §4, §5, §6

[3] = test system: Methicillin sensitive Staphylococcus aureus ATCC 29213; test: as above; assay type: cell-based
Experimental: as §1, §2, §3, §4, §5, §6

[4] = test system: Methicillin resistant Staphylococcus aureus ATCC 43300; test: as above; assay type: cell-based
Experimental: as §1, §2, §3, §4, §5, §6

[5] = test system: Eschericha coli ATCC 25922; test: as above; assay type: cell-based; settings: Escherichia coli
Experimental: as §1, §2, §3, §4, §5, §6

[6] = ATCC27853, Pseudomona aeruginosa ATCC 27853, read-out: CIM
[7] = ATCC29212, Enterococcus faecalis ATCC 29212, read-out: CIM
[8] = ATCC29213, Methicillin sensitive Staphylococcus aureus ATCC 29213, read-out: CIM
[9] = ATCC43300, Methicillin resistant Staphylococcus aureus ATCC 43300, read-out: CIM
[10] = ATCC25922, Eschericha coli ATCC 25922, read-out: CIM
[11] = Enterococcus faecalis, ATCC29212, read-out: CIM
[12] = Staphylococcus aureus, ATCC29213, read-out: CIM
[13] = Staphylococcus aureus, ATCC43300, read-out: CIM

| MIC [1, 6] [µg/mL] | MIC [2, 7] [µg/mL] | MIC [3, 8] [µg/mL] | MIC [4, 9] [µg/mL] | MIC [5, 10] [µg/mL] | melting point [°C] | SMILES | MIC ([1]; ATCC27853, read-out: CIM) [µg/mL] | MIC [2, 11] [µg/mL] | MIC [3, 12] [µg/mL] | MIC [4, 13] [µg/mL] | MIC ([5]; ATCC25922, read-out: CIM) [µg/mL] |
| --- | --- | --- | --- | --- | --- | --- | --- | --- | --- | --- | --- |
| ≥ 32 | 16 (≈ 38 µM) | 4 (≈ 9.49 µM) | 4 (≈ 9.49 µM) | ≥ 32 | 191 to 192.3 | CCc1nc2c(c3c1C(=O)C(Sc1ccc(C)cc1)=CC3=O)c(=O)n(C)c(=O)n2C [Molecule 13, 6-ethyl-2,4-dimethyl-8-(p-tolylthio)pyrimido[4,5-c]isoquinoline-1,3,7,10(2H,4H)-tetraone] |  |  |  |  |  |
|  |  |  |  |  |  | CCc1nc2c(c3c1C(=O)C(Sc1ccccc1Cl)=CC3=O)c(=O)n(C)c(=O)n2C [Molecule 6, 8-((2-chlorophenyl)thio)-6-ethyl-2,4-dimethyl pyrimido[4,5-c]isoquinoline-1,3,7,10(2H,4H)-tetraone] | ≥ 32 | ≥ 32 | ≥ 32 | ≥ 32 | ≥ 32 |
| ≥ 32 | 8 (≈ 16.4 µM) | 8 (≈ 16.4 µM) | 4 (≈ 8.22 µM) | ≥ 32 | 197.9 to 198.7 | CCc1nc2c(c3c1C(=O)C(Sc1ccc(Br)cc1)=CC3=O)c(=O)n(C)c(=O)n2C [Molecule 17, 8-(4-bromothiophenyl)-6-ethyl-2,4-dimethylpyrimido[4,5-c]isoquinoline-1,3,7,10(2H,4H)-tetraone] |  |  |  |  |  |
| ≥ 32 | 4 (≈ 9.05 µM) | 32 (≈ 72.4 µM) | 2 (≈ 4.53 µM) | ≥ 32 | 156.1 to 157.1 | CCc1nc2c(c3c1C(=O)C(Sc1cccc(Cl)c1)=CC3=O)c(=O)n(C)c(=O)n2C [Molecule 11, 8-(3-chlorothiophenyl)-6-ethyl-2,4-dimethylpyrimido[4,5-c]isoquinoline-1,3,7,10(2H,4H)-tetraone] |  |  |  |  |  |
| ≥ 32 | 2 (≈ 4.11 µM) | 4 (≈ 8.22 µM) | 1 (≈ 2.06 µM) | ≥ 32 |  | CCc1nc2c(c3c1C(=O)C(Sc1ccccc1Br)=CC3=O)c(=O)n(C)c(=O)n2C [Molecule 7, 8-((2-bromophenyl)thio)-6-ethyl-2,4-dimethylpyrimido[4,5-c]isoquinoline-1,3,7,10(2H,4H)-tetraone] |  |  |  |  |  |
| ≥ 32 | 8 (≈ 18.8 µM) | 8 (≈ 18.8 µM) | 8 (≈ 18.8 µM) | ≥ 32 | 194.9 to 195.4 | CCc1nc2c(c3c1C(=O)C(Sc1ccc(F)cc1)=CC3=O)c(=O)n(C)c(=O)n2C [Molecule 15, 6-ethyl-8-(4-fluorothiophenyl)-2,4-dimethylpyrimido[4,5-c]isoquinoline-1,3,7,10(2H, 4H)-tetraone] |  |  |  |  |  |
| ≥ 32 | 4 (≈ 9.49 µM) | 4 (≈ 9.49 µM) | 4 (≈ 9.49 µM) | ≥ 32 | 162 to 163 | CCc1nc2c(c3c1C(=O)C(Sc1cccc(C)c1)=CC3=O)c(=O)n(C)c(=O)n2C [Molecule 8, 6-ethyl-2,4-dimethyl-8-(m-tolylthio)pyrimido[4,5c]isoquinoline-1,3,7,10(2H,4H)-tetraone] |  |  |  |  |  |
| > 32 | > 32 | ≥ 32 | ≥ 32 | > 32 | 167.6 to 167.9 | CCc1nc2c(c3c1C(=O)C=CC3=O)c(=O)n(C)c(=O)n2C [Molecule 1, 6-ethyl-2,4-dimethylpyrimido[4,5-c]isoquinoline-1,3,7,10(2H,4H)-tetraone] |  |  |  |  |  |
| ≥ 32 | 4 (≈ 9.14 µM) | 8 (≈ 18.3 µM) | 4 (≈ 9.14 µM) | ≥ 32 | 179.5 to 180.5 | CCc1nc2c(c3c1C(=O)C(Sc1cccc(OC)c1)=CC3=O)c(=O)n(C)c(=O)n2C [Molecule 9, 6-ethyl-8-(3-methoxythiophenyl)-2,4-dimethylpyrimido[4,5-c]isoquinoline-1,3,7,10(2H,4H)-tetraone] |  |  |  |  |  |
| ≥ 32 | 4 (≈ 9.14 µM) | 4 (≈ 9.14 µM) | 2 (≈ 4.57 µM) | ≥ 32 |  | CCc1nc2c(c3c1C(=O)C(Sc1ccccc1OC)=CC3=O)c(=O)n(C)c(=O)n2C [Molecule 4, 6-ethyl-8-(2-methoxyphenylthio)-2,4-dimethyl pyrimido[4,5-c]isoquinoline-1,3,7,10(2H,4H)-tetraone] |  |  |  |  |  |
| ≥ 32 | 16 (≈ 36.6 µM) | 16 (≈ 36.6 µM) | 16 (≈ 36.6 µM) | ≥ 32 | 198.9 to 201.5 | CCc1nc2c(c3c1C(=O)C(Sc1ccc(OC)cc1)=CC3=O)c(=O)n(C)c(=O)n2C [Molecule 14, 6-ethyl-8-(4-methoxythiophenyl)-2,4-dimethylpyrimido[4,5-c]isoquinoline-1,3,7,10(2H,4H)-tetraone] |  |  |  |  |  |
| ≥ 32 | ≥ 32 | 32 (≈ 75.9 µM) | 32 (≈ 75.9 µM) | ≥ 32 | 206 to 210.9 | CCc1nc2c(c3c1C(=O)C(Sc1ccccc1C)=CC3=O)c(=O)n(C)c(=O)n2C [Molecule 3, 6-ethyl-2,4-dimethyl-8-(o-tolylthio)pyrimido[4,5-c]isoquinoline-1,3,7,10(2H,4H)-tetraone] |  |  |  |  |  |
| ≥ 32 | 8 (≈ 18.8 µM) | 4 (≈ 9.4 µM) | 4 (≈ 9.4 µM) | ≥ 32 | 170 to 171 | CCc1nc2c(c3c1C(=O)C(Sc1cccc(F)c1)=CC3=O)c(=O)n(C)c(=O)n2C [Molecule 10, 6-ethyl-8-(3-fluorothiophenyl)-2,4-dimethylpyrimido[4,5-c]isoquinoline-1,3,7,10(2H,4H)-tetraone] |  |  |  |  |  |
| ≥ 32 | 4 (≈ 8.22 µM) | 32 (≈ 65.8 µM) | 2 (≈ 4.11 µM) | ≥ 32 | 138.3 to 139.3 | CCc1nc2c(c3c1C(=O)C(Sc1cccc(Br)c1)=CC3=O)c(=O)n(C)c(=O)n2C [Molecule 12, 8-(3-bromothiophenyl)-6-ethyl-2,4-dimethylpyrimido[4,5-c]isoquinoline-1,3,7,10(2, 4H)-tetraone] |  |  |  |  |  |
| ≥ 32 | ≥ 32 | ≥ 32 | ≥ 32 | ≥ 32 |  | CCc1nc2c(c3c1C(=O)C(Sc1ccccc1F)=CC3=O)c(=O)n(C)c(=O)n2C [Molecule 5, 6-ethyl-8-((2-fluorophenyl)thio)-2,4-dimethyl pyrimido[4,5-c]isoquinoline-1,3,7,10(2H, 4H)-tetraone] |  |  |  |  |  |

| SMILES | MIC [1, 6] [µg/mL] | MIC [2, 7] [µg/mL] | MIC [3, 8] [µg/mL] | MIC [4, 9] [µg/mL] | MIC [5, 10] [µg/mL] | melting point [°C] | MIC ([1]; ATCC27853, read-out: CIM) [µg/mL] | MIC [2, 11] [µg/mL] | MIC [3, 12] [µg/mL] | MIC [4, 13] [µg/mL] | MIC ([5]; ATCC25922, read-out: CIM) [µg/mL] |
| --- | --- | --- | --- | --- | --- | --- | --- | --- | --- | --- | --- |
| CCc1nc2c(c3c1C(=O)C(Sc1ccc(Cl)cc1)=CC3=O)c(=O)n(C)c(=O)n2C [Molecule 16, 8-(4-chlorothiophenyl)-6-ethyl-2,4-dimethylpyrimido[4,5-c]isoquinoline-1,3,7,10(2H, 4H)-tetraone] |  |  |  |  |  | 196.5 to 198.3 | ≥ 32 | 4 (≈ 9.05 µM) | 4 (≈ 9.05 µM) | 4 (≈ 9.05 µM) | ≥ 32 |
| CCc1nc2c(c3c1C(=O)C(Sc1ccccc1)=CC3=O)c(=O)n(C)c(=O)n2C [Molecule 2, 6-ethyl-2,4-dimethyl-8-(phenythio)pyrimido[4,5-c]isoquinoline-1,3,7,10(2H,4H)-tetraone] |  |  |  |  |  | 179.4 to 180 | ≥ 32 | 8 (≈ 19.6 µM) | 8 (≈ 19.6 µM) | 8 (≈ 19.6 µM) | ≥ 32 |
